Assay results reported in patent US20190119348A1, “PARATHYROID HORMONE RECEPTOR 1 ANTAGONIST AND INVERSE AGONIST POLYPEPTIDES AND METHODS OF THEIR USE” (The General Hospital Corporation, priority 2016, published 2019).
Where a SMILES comes first, the peptide text is derived from it. [ ]: non-standard residue; d: D form. Nle = CCCC[C@H](N)C(=O)O

Key:
wild-type PTHR = target: T1, wild-type PTHR (Mus musculus, UniProt P41593); assay: Mouse model of hypercalcemia of malignancy (co-injection with PTHrP(1-36)), blood Ca2+; type: in vivo; conditions: 10-week old female CD1 mice; i.v. co-injection with PTHrP(1-36)-1880 10 nmol/kg; peptide 500 nmol/kg
T1 construct: Wild-type mice were injected with a PTH agonist analog; from tissue; host or cells: whole animal, wild-type mice (C57BL/6J per methods)
T1 sequence (P41593 27-591): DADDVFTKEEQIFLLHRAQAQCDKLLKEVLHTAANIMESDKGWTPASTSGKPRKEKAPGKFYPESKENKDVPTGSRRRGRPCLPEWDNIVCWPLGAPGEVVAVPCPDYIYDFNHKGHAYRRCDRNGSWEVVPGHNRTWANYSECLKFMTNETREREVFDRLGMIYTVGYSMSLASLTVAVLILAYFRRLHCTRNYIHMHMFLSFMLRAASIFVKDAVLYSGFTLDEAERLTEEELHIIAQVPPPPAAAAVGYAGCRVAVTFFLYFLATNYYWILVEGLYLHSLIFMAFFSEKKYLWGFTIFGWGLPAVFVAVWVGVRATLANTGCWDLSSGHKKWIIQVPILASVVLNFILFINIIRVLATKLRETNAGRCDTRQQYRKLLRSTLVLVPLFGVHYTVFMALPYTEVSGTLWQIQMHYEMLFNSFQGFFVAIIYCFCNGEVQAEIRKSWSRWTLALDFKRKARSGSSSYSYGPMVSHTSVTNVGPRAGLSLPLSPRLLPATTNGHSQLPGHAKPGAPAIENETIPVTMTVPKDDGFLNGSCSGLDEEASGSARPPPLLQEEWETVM
Protocol: Mice were injected IV via the tail vein or subcutaneously with ligands in vehicle (0.05% Tween80; 10 mM citrate; 150 mM NaCl; pH 5.0) to give the intended final ligand dose (e.g. 50 nmol/kg body weight). At times immediately before (t=0) and after injection, tail vein blood was collected and analyzed for blood ionized calcium (Ca^2+) measured with a RAPIDLAB 348 analyzer (SIEMENS Healthcare Diagnostic, United Kingdom).
To study antagonism at the wild-type PTHR under conditions of excess PTHrP, as occurs in humans with hypercalcemia of malignancy, we co-injected wild-type mice with PTHrP(1-36) and a test antagonist and measured effects on blood Ca^2+ levels. The results are illustrated in FIG. 13.

human PTHR1-T410P = target: T2, human PTHR1-T410P (Homo sapiens, UniProt Q03431, T410P); assay: Inverse agonism on basal cAMP signaling in GTP-4 cells; type: cell-based; conditions: GTP-4 cells (HEK293/GloSensor)
T2 construct: expressed in transfected cells; host or cells: GTP-4 (HEK-293 stably expressing GloSensor and PTHR1-T410P)
T2 sequence (Q03431 27-593 T410P): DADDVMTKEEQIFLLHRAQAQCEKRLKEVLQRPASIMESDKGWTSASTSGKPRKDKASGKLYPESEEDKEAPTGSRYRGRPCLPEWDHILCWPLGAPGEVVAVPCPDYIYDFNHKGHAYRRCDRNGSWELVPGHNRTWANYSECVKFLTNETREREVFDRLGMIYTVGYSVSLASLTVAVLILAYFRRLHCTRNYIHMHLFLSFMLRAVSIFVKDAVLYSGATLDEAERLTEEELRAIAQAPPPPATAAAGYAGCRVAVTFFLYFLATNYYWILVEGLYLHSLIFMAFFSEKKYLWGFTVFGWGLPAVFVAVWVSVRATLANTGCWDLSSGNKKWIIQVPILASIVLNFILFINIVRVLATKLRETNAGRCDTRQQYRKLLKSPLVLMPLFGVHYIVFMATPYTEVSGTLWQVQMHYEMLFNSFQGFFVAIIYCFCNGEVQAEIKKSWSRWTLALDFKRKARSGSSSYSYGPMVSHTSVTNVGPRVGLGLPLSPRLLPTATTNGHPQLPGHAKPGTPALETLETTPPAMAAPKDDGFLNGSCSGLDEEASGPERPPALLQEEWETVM
Protocol: cAMP signaling was assessed in the HEK293-derived or SaOS2-derived cell lines stably expressing the luciferase-based GloSensor™ cAMP reporter (Hattersley et al., Paper presented at: Novel Signaling Mechanisms and Bone Cell Biology 2014; Binkowski et al., Methods in molecular biology. 756:263-271). HEK-293 cells were further transfected to stably express the hPTHR1, hPTHR1-H223R, or hPTHR1-T410P. The cells were seeded into 96-well white plates and were assayed 24 to 48 hours post-confluency. Assays were performed at room temperature in CO2-independent culture media (Life Technologies, Corp., Carlsbad, Calif.) containing 0.1% BSA (CIDB). The cells were pre-loaded with luciferin (0.5 mM in CIDB) for 15 minutes, then PTH peptides were added at varying concentrations. cAMP-dependent luminescence was measured at two-minute intervals using a PerkinElmer Envision plate reader. The time at which maximum luminescence (cps) observed with agonist alone, typically at 10-20 minutes after agonist addition, was used to obtain data from wells containing antagonist with or without agonist, to thus generate antagonist ligand dose-response curves. The resulting cps values were then plotted against ligand concentration using GraphPad Prism 7.0 software and a four-parameter logistics curve fitting equation, which yielded parameters of inhibitory potency (pIC50).
These experiments were performed in HEK-293 cells stably transfected to express the GloSensor™ cAMP reporter along with a constitutively active mutant human PTHR1. The HEK-293 cells stably expressing GloSensor™ cAMP reporter along with a constitutively active mutant human PTHR1-H223R are GHR-10 cells. The HEK-293 cells stably expressing GloSensor™ cAMP reporter along with a constitutively active mutant human PTHR1-T410P are GTP-4 cells. […] Effects on basal cAMP signaling over time were assessed during periods of direct ligand addition (FIGS. 15A-15F). The measurements were performed by recording GloSensor™ luminescence as counts per second (cps) using a PerkinElmer Envision plate reader. […]

Row | inverse agonist properties on constitutively active PTHR1-T410P (basal cAMP) (human PTHR1-T410P) | Compound | effect on blood Ca^2+ levels (FIG. 13) (wild-type PTHR)
1 | exhibited inverse agonist properties | CC[C@H](C)[C@H](N)C(=O)N[C@@H](CCC(N)=O)C(=O)N[C@@H](CC(C)C)C(=O)N[C@@H](CCSC)C(=O)N[C@@H](Cc1c[nH]cn1)C(=O)N[C@@H](CCC(N)=O)C(=O)N[C@@H](CCCNC(=N)N)C(=O)N[C@H](Cc1c[nH]c2ccccc12)C(=O)N[C@@H](CCCCN)C(=O)N[C@@H](Cc1c[nH]c2ccccc12)C(=O)N[C@H](C(=O)N[C@@H](CCC(N)=O)C(=O)N[C@@H](CC(=O)O)C(=O)N[C@@H](C)C(=O)N[C@@H](CCCNC(=N)N)C(=O)N[C@@H](CCCNC(=N)N)C(=O)N[C@@H](CCCNC(=N)N)C(=O)N[C@@H](C)C(=O)N[C@@H](Cc1c[nH]c2ccccc12)C(=O)N[C@@H](CC(C)C)C(=O)N[C@@H](Cc1c[nH]cn1)C(=O)N[C@@H](CCCCN)C(=O)N[C@@H](CC(C)C)C(=O)N[C@H](C(=O)N[C@@H](C)C(=O)N[C@@H](CCC(=O)O)C(=O)N[C@H](C(=O)N[C@@H](Cc1c[nH]cn1)C(=O)N[C@H](C(=O)N[C@@H](C)C(=O)N[C@@H](CCC(=O)O)C(=O)N[C@H](C(N)=O)[C@@H](C)CC)[C@@H](C)O)[C@@H](C)CC)[C@@H](C)CC)[C@@H](C)CC [compound 1949, dW12, W23-LA-PTH(5-36)] (H-IQLMHQR[dW]KWIQDARRRAWLHKLIAEIHTAEI-NH2; N-terminus assumed) | significant reduction of blood Ca^2+ levels
2 | inverse agonist response | CC[C@H](C)[C@H](NC(=O)[C@H](CCC(=O)O)NC(=O)[C@H](C)NC(=O)[C@@H](NC(=O)[C@H](Cc1c[nH]cn1)NC(=O)[C@@H](NC(=O)[C@H](CCC(=O)O)NC(=O)[C@H](C)NC(=O)[C@@H](NC(=O)[C@H](CC(C)C)NC(=O)[C@H](CCCCN)NC(=O)[C@H](Cc1c[nH]cn1)NC(=O)[C@H](CC(C)C)NC(=O)[C@H](Cc1c[nH]c2ccccc12)NC(=O)[C@H](C)NC(=O)[C@H](CCCNC(=N)N)NC(=O)[C@H](CCCNC(=N)N)NC(=O)[C@H](CCCNC(=N)N)NC(=O)[C@H](C)NC(=O)[C@H](CC(=O)O)NC(=O)[C@H](CCC(N)=O)NC(=O)[C@@H](NC(=O)[C@H](Cc1c[nH]c2ccccc12)NC(=O)[C@H](CCCCN)NC(=O)[C@@H](Cc1c[nH]c2ccccc12)NC(=O)[C@H](CCCNC(=N)N)NC(=O)[C@H](CCC(N)=O)NC(=O)[C@H](Cc1c[nH]cn1)NC(=O)[C@H](CCSC)NC(=O)[C@@H](N)CC(C)C)[C@@H](C)CC)[C@@H](C)CC)[C@@H](C)CC)[C@@H](C)O)C(N)=O [compound 1990, dW12, W23-LA-PTH(7-36)-1990] (H-LMHQR[dW]KWIQDARRRAWLHKLIAEIHTAEI-NH2; N-terminus assumed) | 
3 | inverse agonist response | CCCC[C@H](NC(=O)[C@@H](N)CC(C)C)C(=O)N[C@@H](Cc1c[nH]cn1)C(=O)N[C@@H](CCC(N)=O)C(=O)N[C@@H](CCCNC(=N)N)C(=O)N[C@H](Cc1c[nH]c2ccccc12)C(=O)N[C@@H](CCCCN)C(=O)N[C@@H](Cc1c[nH]c2ccccc12)C(=O)N[C@H](C(=O)N[C@@H](CCC(N)=O)C(=O)N[C@@H](CC(=O)O)C(=O)N[C@@H](C)C(=O)N[C@@H](CCCNC(=N)N)C(=O)N[C@@H](CCCNC(=N)N)C(=O)N[C@@H](CCCNC(=N)N)C(=O)N[C@@H](C)C(=O)N[C@@H](Cc1c[nH]c2ccccc12)C(=O)N[C@@H](CC(C)C)C(=O)N[C@@H](Cc1c[nH]cn1)C(=O)N[C@@H](CCCCN)C(=O)N[C@@H](CC(C)C)C(=O)N[C@H](C(=O)N[C@@H](C)C(=O)N[C@@H](CCC(=O)O)C(=O)N[C@H](C(=O)N[C@@H](Cc1c[nH]cn1)C(=O)N[C@H](C(=O)N[C@@H](C)C(=O)N[C@@H](CCC(=O)O)C(=O)N[C@H](C(N)=O)[C@@H](C)CC)[C@@H](C)O)[C@@H](C)CC)[C@@H](C)CC)[C@@H](C)CC [compound 1992, Nle8, dW12, W23-LA-PTH(7-36)-1992] (H-L[Nle]HQR[dW]KWIQDARRRAWLHKLIAEIHTAEI-NH2; N-terminus assumed) | 
